This passage reports EC50 and CC50 results from ChEMBL document CHEMBL1156829 (Proc Natl Acad Sci U S A, 2008).

The subject of data set [1] is Plasmodium falciparum. The data set can be described thus: NOVARTIS: Inhibition of Plasmodium falciparum W2 (drug-resistant) proliferation in erythrocyte-based infection assay. The conditions noted are these: Plasmodium falciparum, W2; read-out: EC50. The class given is functional, organism-based.
Data set [2] has as its system Plasmodium falciparum. Kind of data set: NOVARTIS: Inhibition of Plasmodium falciparum 3D7 (drug-susceptible) proliferation in erythrocyte-based infection assay. The following applies: Plasmodium falciparum, 3D7. It is filed as functional, organism-based.
A short description of data set [3]: NOVARTIS: Cytotoxicity against human hepatocellular carcinoma cell line (Huh7). The following applies: Huh7 cells (hepatocellular carcinoma cell line). The class given is toxicity, cell-based, Huh-7.

For the molecule `CCCCCC(=O)N1c2ccccc2N=C2CC(c3ccc(OC)c(OC)c3)CC(O)=C2C1c1ccc(C(F)(F)F)cc1` (stereo unspecified), the EC50 (in general, the midpoint of the concentration-response curve) in the data set on Plasmodium falciparum [1] was found to be 47 nM; in the data set on Plasmodium falciparum [2], 107 nM. Besides, in data set [3], the CC50 (in general, the concentration at which the toxic effect on the cells reaches its halfway point) is above 100000 nM.
In the case of `CC1=C(C(=O)OC(C)C)C(c2ccccc2Cl)C2=C(CC(c3ccccc3)CC2=O)N1` (stereo unspecified), the figures for the concentration giving a half-maximal response (EC50) in the data set on Plasmodium falciparum [1] and in the data set with Plasmodium falciparum [2] were 38.4 nM and 297 nM, respectively. This molecule also showed a CC50 in data set [3] above 64200 nM.
The like results for `COc1ccc(C2(CNCC(O)c3cccc([N+](=O)[O-])c3)CCCC2)cc1OC` (stereo unspecified) were, in that order, 52.5 nM, 490 nM and above 100000 nM.
On the same counts, the results for `CCCN(CCC)CC(O)COc1ccccc1C(=O)Nc1ccccc1` (stereo unspecified) are 51.1 nM, 365 nM and above 100000 nM.
On the same counts, the results for `CCCN(C(=O)C(=O)Nc1ccc2nc3n(c(=O)c2c1)CCCCC3)c1ccc(OCC)cc1` are 50.1 nM, 89.9 nM and above 100000 nM.
With `COc1cccc(-c2ccc(O)c(CNC34CC5CC(CC(C5)C3)C4)c2)n1`, the EC50 in the data set on Plasmodium falciparum [1] came out at 50 nM; in the data set with Plasmodium falciparum [2], 207 nM. Also, in data set [3], the CC50 was above 100000 nM.
On the same counts, the results for `CCOC(=O)C1=C(C)NC2=C(C(=O)CC(c3ccc(Cl)cc3)C2)C1c1ccc(Cl)cc1` (stereo unspecified) are 51.5 nM, 89.4 nM and above 100000 nM.
The like results for `CCSc1nc2sc3c(c2c(=O)n1-c1ccccc1)CCN(Cc1ccccc1)C3` were, in that order, 34.8 nM, 85.8 nM and above 68400 nM.
As to `NCCCC[C@H]1C(=O)Nc2ccc(O)cc2C(=O)N1C(C(=O)NCC(=O)O)c1cccnc1` (stereo partly specified), the EC50 is below 6.3 nM with Plasmodium falciparum [1] and 115 nM in the data set on Plasmodium falciparum [2]. For the same molecule, the CC50 in data set [3] was above 12100 nM.
On the same counts, the results for `CC(CCc1ccccc1)N1CC(c2cccc([N+](=O)[O-])c2)OC1=S` (stereo unspecified) are 18 nM, 307 nM and 32800 nM.
For `COC(=O)C1=C(C)NC2=C(C(=O)CC(c3ccc(OC)cc3)C2)C1c1ccc(F)cc1` (stereo unspecified), the EC50 came out at 54.7 nM in the data set with Plasmodium falciparum [1] and 191 nM in the data set on Plasmodium falciparum [2]. The same molecule had a CC50 in data set [3] above 100000 nM.
On the same counts, the results for `CC(=O)Oc1ccccc1-c1nc2cc(C)ccn2c1NC(C)(C)CC(C)(C)C` are below 5.33 nM, 389 nM and above 10000 nM.
The like results for `CCOC(=O)C1=C(C)NC2=C(C(=O)CC(c3ccc(OC)c(OC)c3)C2)C1c1cccc(C)c1` (stereo unspecified) were, in that order, 57.2 nM, 236 nM and above 100000 nM.
With `COc1ccc(C2CC(=O)C3=C(C2)NC(C)=C(C(=O)OC(C)C)C3c2ccc(F)cc2)cc1OC` (stereo unspecified), the EC50 with Plasmodium falciparum [1] came out at 13.1 nM; in the data set on Plasmodium falciparum [2] it was 9.45 nM. Further, in data set [3], the CC50 is 22800 nM.
On the same counts, the results for `CC1=C(C(=O)OC(C)C)C(c2ccc([N+](=O)[O-])cc2)C2=C(CC(c3ccc(Cl)cc3)CC2=O)N1` (stereo unspecified) are 56.3 nM, 1190 nM and above 100000 nM.
The like results for `Nc1ccc(-c2nc3ccc(-c4nc5ccc(N)cc5[nH]4)cc3[nH]2)cc1` were, in that order, 55.6 nM, 120 nM and above 100000 nM.
As for `COCCOC(=O)C1=C(C)NC2=C(C(=O)CC(c3ccc(OC)c(OC)c3)C2)C1c1cccc(Cl)c1Cl` (stereo unspecified), the EC50 with Plasmodium falciparum [1] was found to be 58 nM; with Plasmodium falciparum [2], 178 nM. The same molecule returned a CC50 in data set [3] above 100000 nM.
The like results for `Cn1nc(C(=O)N2CCCCCC2)c2c1CCC(NCC(C)(C)N1CCOCC1)C2` (stereo unspecified) were, in that order, 5.52 nM, 22.5 nM and above 9560 nM.
On the same counts, the results for `COc1cccc(-c2ccc(O)c(CN3CCCCC3)c2)n1` are 54.7 nM, 469 nM and above 95800 nM.
On to `COc1ccc(NC(=O)C2c3ccccc3C(=O)N(CC(C)C)C2c2cccs2)cc1Cl` (stereo unspecified), for which the EC50 in the data set on Plasmodium falciparum [1] amounted to 55.6 nM; in the data set on Plasmodium falciparum [2] it was 91.4 nM. Besides, the CC50 in data set [3] was above 100000 nM.
On the same counts, the results for `CCCCNC(=O)C(c1cccc(OC)c1)N1C(=O)c2cc(Oc3ccccc3)ccc2NC(=O)C1CO` (stereo unspecified) are below 8 nM, 181 nM and above 14000 nM.
On the same counts, the results for `CCCCCCCC(=O)N(C)CCCNc1ccnc2cc(Cl)ccc12` are below 5.87 nM, 242 nM and above 9690 nM.
Take `C/C=C/C(C(=O)NCCCC)N1C(=O)c2cc(NC(C)=O)ccc2NC(=O)[C@@H]1C` (stereo partly specified): the EC50 in the data set with Plasmodium falciparum [1] turned out to be 4.57 nM; in the data set with Plasmodium falciparum [2], 199 nM. The molecule further returned a CC50 in data set [3] of 7590 nM.
Consider `COCCOC(=O)C1=C(C)NC2=C(C(=O)CC(c3ccc(OC)cc3)C2)C1c1ccc(F)cc1` (stereo unspecified), for which the EC50 came out at 59 nM in the data set with Plasmodium falciparum [1] and 161 nM with Plasmodium falciparum [2]. In data set [3], this molecule registered a CC50 above 100000 nM.
The like results for `CCCOC(=O)C1=C(C)NC2=C(C(=O)CC(c3ccc(OC)c(OC)c3)C2)C1c1cccc([N+](=O)[O-])c1` (stereo unspecified) were, in that order, 36.4 nM, 145 nM and above 62400 nM.
Regarding `CC1CCN(C2=C(NC3CCCC3)C(=O)c3ccccc3C2=O)CC1`, the values for the EC50 with Plasmodium falciparum [1] and in the data set with Plasmodium falciparum [2] were 14.2 nM and 9.08 nM, respectively. In addition, the CC50 in data set [3] was determined as 24400 nM.
Consider `CCOC(=O)C1=C(C)NC2=C(C(=O)CC(c3ccc(OC)cc3)C2)C1c1ccsc1` (stereo unspecified), for which the figures for the EC50 in the data set on Plasmodium falciparum [1] and in the data set with Plasmodium falciparum [2] were 62 nM and 302 nM, respectively. For the same molecule, the CC50 in data set [3] was above 100000 nM.
In the case of `COc1ccc(C2CC(=O)C3=C(C2)NC(C)=C(C(=O)OC2CCCCC2)C3c2ccc([N+](=O)[O-])cc2)cc1OC` (stereo unspecified), the values for the EC50 with Plasmodium falciparum [1] and in the data set with Plasmodium falciparum [2] were 61.7 nM and 194 nM, respectively. Besides, the CC50 in data set [3] was above 100000 nM.
The like results for `COc1cccc(C(=O)Oc2ccccc2-c2nc3cc(C)ccn3c2NC(C)(C)CC(C)(C)C)c1` were, in that order, 6.15 nM, 986 nM and above 10000 nM.
The like results for `O=C(Cc1ccccc1)NCc1ccc(Nc2c(-c3cccnc3)nc3ccccn23)cc1` were, in that order, below 6.13 nM, 34.2 nM and above 10000 nM.
On the same counts, the results for `Cc1ccn2c(NC(C)(C)CC(C)(C)C)c(-c3ccccc3OC(=O)c3ccccc3F)nc2c1` are 6.35 nM, 951 nM and above 10000 nM.
As to `COC(=O)C1=C(C)NC2=C(C(=O)CC(c3ccc(OC)c(OC)c3)C2)C1c1cccc(O)c1` (stereo unspecified), the EC50 in the data set on Plasmodium falciparum [1] stood at 50 nM; with Plasmodium falciparum [2], 92 nM. The molecule further displayed a CC50 in data set [3] above 100000 nM.
Take `CCOCCCNc1nc2cc(OC)c(OC)cc2c2nc(-c3ccccc3)nn12`: the EC50 came to 56.3 nM in the data set with Plasmodium falciparum [1] and 83.1 nM with Plasmodium falciparum [2]. In data set [3], this molecule displayed a CC50 above 100000 nM.
The like results for `CCCOC(=O)C1=C(C)NC2=C(C(=O)CC(c3ccc(OC)c(OC)c3)C2)C1c1ccc(Br)cc1` (stereo unspecified) were, in that order, 46.9 nM, 37.7 nM and above 100000 nM.
Regarding `CCOC(=O)C1=C(CC)NC2=C(C(=O)CC(C)(C)C2)C1c1ccc(Cl)cc1Cl` (stereo unspecified), the figures for the EC50 in the data set with Plasmodium falciparum [1] and in the data set with Plasmodium falciparum [2] were 45.9 nM and 208 nM, respectively. The same molecule yielded a CC50 in data set [3] above 100000 nM.
The like results for `CCOC(=O)C1=C(C)NC2=C(C(=O)CC(c3ccc(OC)c(OC)c3)C2)C1c1ccc([N+](=O)[O-])cc1` (stereo unspecified) were, in that order, 64 nM, 180 nM and above 100000 nM.
The like results for `Cc1cc(Nc2ccc(Br)c(C)c2)n2nc(C)nc2n1` were, in that order, 45.8 nM, 53 nM and above 100000 nM.
The like results for `CC1CC(C)CN(C(=O)c2sc3ccccc3c2Cl)C1` (stereo unspecified) were, in that order, 64.5 nM, 35.7 nM and above 100000 nM.
For `C[n+]1ccc(/C=C/c2ccccc2F)c2ccccc21`, the EC50 was below 5.24 nM with Plasmodium falciparum [1] and 65.3 nM with Plasmodium falciparum [2]. The CC50 in data set [3] was above 10000 nM.
On the same counts, the results for `CCOC(=O)C1=C(C)NC2=C(C(=O)CC(c3ccc(OC)cc3)C2)C1c1cccc(F)c1` (stereo unspecified) are 50.4 nM, 137 nM and above 100000 nM.
On the same counts, the results for `CCN1c2ccc([N+](=O)[O-])cc2N(CC)C1(C)c1ccccc1` (stereo unspecified) are 39.7 nM, 204 nM and 67600 nM.
The like results for `CCC(C)OC(=O)C1=C(C)NC2=C(C(=O)CC(c3ccc(Cl)cc3)C2)C1c1ccccc1F` (stereo unspecified) were, in that order, 58.3 nM, 205 nM and above 100000 nM.
Consider `NC(=S)NN=Cc1cc([N+](=O)[O-])ccc1O`, for which the EC50 in the data set on Plasmodium falciparum [1] was 52 nM; in the data set with Plasmodium falciparum [2], 68.6 nM. In addition, the CC50 in data set [3] is above 100000 nM.
On the same counts, the results for `CCC(C)(C)n1nnnc1C(c1cc2ccc(C)cc2[nH]c1=O)N1CCN(c2ccccc2)CC1` (stereo unspecified) are 61.4 nM, 453 nM and above 100000 nM.
As to `CC(=O)N1c2ccc([N+](=O)[O-])cc2C(C)(c2ccccc2)CC1(C)C` (stereo unspecified), the EC50 is 61.2 nM with Plasmodium falciparum [1] and 1100 nM in the data set on Plasmodium falciparum [2]. In addition, in data set [3], the CC50 is above 100000 nM.
On the same counts, the results for `Cc1cccc(Nc2c3c(c(C#N)c4nc5ccccc5n24)CCC3)c1` are 51.8 nM, 92.6 nM and above 100000 nM.
On to `OC(Cn1cnc(-c2ccccc2)c1-c1ccccc1)Cn1c2ccc(Br)cc2c2cc(Br)ccc21` (stereo unspecified), for which the figures for the EC50 with Plasmodium falciparum [1] and in the data set with Plasmodium falciparum [2] were 53.2 nM and 952 nM, respectively. In data set [3], this molecule yielded a CC50 above 100000 nM.
The like results for `CC(C)(C)NC(=S)NN=CC=NNC(=S)NC(C)(C)C` were, in that order, 56.9 nM, 210 nM and above 100000 nM.
As for `CCCOC(=O)C1=C(C)NC2=C(C(=O)CC(c3ccc(OC)cc3)C2)C1c1ccc([N+](=O)[O-])cc1` (stereo unspecified), the EC50 with Plasmodium falciparum [1] is 51.4 nM; in the data set on Plasmodium falciparum [2] it was 281 nM. In data set [3], the CC50 was above 100000 nM.
On the same counts, the results for `CC(Cc1ccccc1)NCc1ccccc1O` (stereo unspecified) are below 4.93 nM, 525 nM and above 10000 nM.
The like results for `CCOC(=O)C1=C(C)NC2=C(C(=O)CC(c3ccc(OC)c(OC)c3)C2)C1c1ccccc1OC` (stereo unspecified) were, in that order, 49.2 nM, 74.1 nM and above 100000 nM.
Take `CC(C)OCCCNc1sc(S(=O)(=O)c2ccccc2)nc1S(=O)(=O)c1ccc(Cl)cc1`: the EC50 was 58.1 nM in the data set on Plasmodium falciparum [1] and 94.1 nM in the data set with Plasmodium falciparum [2]. Moreover, the CC50 in data set [3] is above 100000 nM.
